Test results published in the CheMixHub drug solubility set.

Experiment: xn = mol fraction of the nth substance listed, in the solute-free solvent

O=c1[nH]cc(F)c(=O)[nH]1 + CO + C1CCOC1
solubility (g/100 g solution)
Conditions	283.15 K	288.15 K	293.15 K	298.15 K	303.15 K	308.15 K	313.15 K	318.15 K	323.15 K
x2 = 0.36	0.152	0.171	0.193	0.219	0.254	0.294	0.348	0.403	0.473
x2 = 0.6	0.283	0.317	0.356	0.407	0.472	0.546	0.639	0.745	0.862
x2 = 0.7714	0.423	0.483	0.552	0.636	0.73	0.876	1.04	1.23	1.42
x2 = 0.9	0.58	0.665	0.789	0.914	1.05	1.25	1.43	1.65	1.85

O=C1NS(=O)(=O)c2ccccc21 + CO + CC#N
solubility (g/100 g solution)
Conditions	x2 = 0.1002	x2 = 0.2003	x2 = 0.2998	x2 = 0.4002	x2 = 0.4998	x2 = 0.6003	x2 = 0.7001	x2 = 0.7995	x2 = 0.9003
293.15 K	5.52	7.2	8.84	9.66	10	10.1	9.63	8.67	7.25
298.15 K	5.88	7.96	9.73	10.6	11	11.1	10.6	9.56	8.07
303.15 K	6.65	9.04	10.9	11.9	12.5	12.5	12.1	11	9.1
308.15 K	7.35	9.93	12.1	13.2	13.8	14	13.6	12.1	10.1
313.15 K	8.31	11.2	13.3	14.7	15.4	15.6	15.1	13.9	11.7
318.15 K	9.32	12.7	15.2	16.8	17.6	17.7	17.2	15.8	13.3
323.15 K	10.6	14.1	16.7	18.4	19.3	19.6	19.1	17.6	15.1

CC1(C)SC2C(NC(=O)C(NC(=O)N3CCNC3=O)c3ccccc3)C(=O)N2C1C(=O)O (configuration not stated) + CO + CC(C)O
solubility (g/100 g solution)
Conditions	278.15 K	283.15 K	288.15 K	293.15 K	298.15 K	303.15 K	308.15 K	313.15 K	318.15 K	323.15 K
x2 = 0.1	0.0982	0.114	0.133	0.163	0.195	0.225	0.276	0.333	0.411	0.503
x2 = 0.199	0.115	0.133	0.155	0.196	0.228	0.289	0.344	0.425	0.516	0.639
x2 = 0.3	0.139	0.156	0.188	0.229	0.277	0.331	0.4	0.501	0.611	0.735
x2 = 0.4	0.156	0.173	0.202	0.247	0.299	0.361	0.455	0.551	0.673	0.832
x2 = 0.497	0.165	0.186	0.227	0.266	0.323	0.394	0.504	0.618	0.749	0.926
x2 = 0.6	0.186	0.22	0.255	0.298	0.374	0.448	0.55	0.678	0.811	0.994
x2 = 0.7	0.215	0.243	0.295	0.353	0.42	0.494	0.625	0.742	0.889	1.13
x2 = 0.8	0.251	0.297	0.35	0.43	0.49	0.584	0.732	0.868	1.09	1.34
x2 = 0.9	0.297	0.368	0.427	0.507	0.602	0.722	0.92	1.14	1.37	1.68

CCCCN1CCCCC1C(=O)Nc1c(C)cccc1C.Cl.O (configuration not stated) + CO + O
solubility (g/100 g solution)
Conditions	293.15 K	298.15 K	303.15 K	308.15 K	313.15 K	318.15 K	323.15 K	328.15 K	333.15 K
x2 = 0.1	2.92	3.74	5.36	6.77	8.14	9.76	11.3	13.1	14.9
x2 = 0.2	3.04	4.11	5.31	7.06	9.3	11.4	14.1	15.8	19.5
x2 = 0.3	3.57	4.29	5.13	7.32	10.9	14.7	19.7	25.1	30.3
x2 = 0.4	3.64	4.18	5.89	7.92	11.9	17.4	22.3	28	33.2
x2 = 0.5	4.08	4.96	6.91	9.37	13.3	18.7	23.4	28.9	35.2
x2 = 0.6	5.88	6.91	8.26	10.9	14.8	19.1	23.4	29.8	35.8
x2 = 0.7	7.34	8.09	9.74	12.7	16.6	19.9	23.5	30.3	36.2
x2 = 0.8	8.13	9.32	12	14.3	17.3	20.6	24.5	30.2	–
x2 = 0.9	8.65	10.1	13	16	18.9	21.6	25.4	30.3	–

CS(=O)(=O)c1ccc(C(O)C(CF)NC(=O)C(Cl)Cl)cc1 (configuration not stated) + CO + O
solubility (g/100 g solution)
Conditions	278.15 K	283.15 K	288.15 K	293.15 K	298.15 K	303.15 K	308.15 K	313.15 K	318.15 K
x2 = 0.05881	0.163	0.211	0.278	0.358	0.449	0.571	0.711	0.881	1.09
x2 = 0.1233	0.379	0.485	0.609	0.762	0.939	1.15	1.41	1.71	2.06
x2 = 0.1942	0.707	0.878	1.08	1.31	1.58	1.9	2.27	2.68	3.17
x2 = 0.2727	1.06	1.32	1.6	1.93	2.31	2.78	3.28	3.88	4.53
x2 = 0.3599	1.47	1.83	2.25	2.71	3.25	3.88	4.58	5.45	6.34
x2 = 0.4576	1.92	2.4	2.94	3.6	4.3	5.17	6.17	7.3	8.52
x2 = 0.5675	2.52	3.12	3.82	4.64	5.63	6.76	7.98	9.5	11
x2 = 0.6923	3.16	3.96	4.85	5.92	7.07	8.44	10.1	11.9	13.7
x2 = 0.835	3.91	4.85	5.98	7.23	8.65	10.3	12.2	14.2	16.5

O=C(CC(=O)c1ccccc1)c1ccccc1 + CO + O
solubility (g/100 g solution)
Conditions	278.15 K	283.15 K	288.15 K	293.15 K	298.15 K	303.15 K	308.15 K	313.15 K	318.15 K
x2 = 0.2	0.0215	0.0248	0.0305	0.0358	0.0488	0.0621	0.0667	0.0775	0.0881
x2 = 0.4	0.0257	0.0323	0.039	0.0541	0.0826	0.13	0.162	0.236	0.322
x2 = 0.6	0.165	0.351	0.562	0.643	0.783	0.822	0.987	1.02	1.05
x2 = 0.8	0.491	0.788	1.01	1.11	1.35	1.7	1.98	2.52	2.72

O=[N+]([O-])c1cc[nH]n1 + CO + O
solubility (g/100 g solution)
Conditions	283.15 K	288.15 K	293.15 K	298.15 K	303.15 K	308.15 K	313.15 K	318.15 K	323.15 K
x2 = 0.05881	0.466	0.609	0.793	1.01	1.33	1.69	2.27	2.94	3.85
x2 = 0.1233	0.564	0.712	0.875	1.08	1.38	1.73	2.29	2.92	3.79
x2 = 0.1942	0.925	1.17	1.41	1.73	2.13	2.68	3.46	4.36	5.66
x2 = 0.2727	1.15	1.42	1.77	2.15	2.73	3.42	4.48	5.7	7.33
x2 = 0.3599	1.39	1.69	2.12	2.57	3.22	4.01	5	6.42	8.34
x2 = 0.4576	1.45	1.83	2.28	2.77	3.46	4.3	5.39	6.94	8.92
x2 = 0.5675	1.51	1.85	2.27	2.8	3.45	4.33	5.46	6.85	8.68
x2 = 0.6923	1.5	1.84	2.25	2.74	3.41	4.19	5.28	6.7	8.39
x2 = 0.835	1.44	1.82	2.25	2.79	3.66	4.99	6.1	7.64	9.23

O=c1ccc2ccccc2o1 + CO + O
solubility (g/100 g solution)
Conditions	278.15 K	283.15 K	288.15 K	293.15 K	298.15 K	303.15 K	308.15 K	313.15 K	318.15 K
x2 = 0.1	0.0349	0.0594	0.105	0.171	0.28	0.435	0.655	0.988	1.41
x2 = 0.2	0.147	0.236	0.385	0.598	0.922	1.43	2.06	3.08	4.3
x2 = 0.3	0.262	0.479	0.869	1.6	2.58	4.47	7.35	12.8	19.9
x2 = 0.4	0.573	1.11	1.99	3.53	6.25	10.8	17.7	28.7	41.9
x2 = 0.5	1.13	1.96	3.86	6.41	11.2	18.6	28.4	43.2	59.6
x2 = 0.6	1.82	3.3	5.98	9.8	16	24.8	38.3	52.1	67
x2 = 0.7	2.64	4.53	7.8	12.7	20.2	30.4	42.9	59.2	73.3
x2 = 0.8	3.28	5.51	9.32	15.7	22.1	34.3	46.8	62.9	77.3
x2 = 0.9	4.13	6.53	11.1	17.5	25.5	36.7	50.3	65.3	79.6
